Experimental data reported in PMC11210122, “Synthesis, biological evaluation, and molecular docking of novel 1,3,4-substituted-thiadiazole derivatives as potential anticancer agent” (BMC Chemistry, 2024).
Where two headings read alike, the source gives them in different places.

Legend:
[1] = tested on: hepatocellular carcinoma cell lines (HEPG-2); assay: MTT anti-proliferative assay, HepG-2; type: cell-based, human; conditions: mean ± SD of three independent experiments, read-out: Growth inhibition, GI50
Method: (§1) Methods for in vitro anti-proliferative assay [Cell lines]: In the current investigation, hepatocellular carcinoma cell lines (HEPG-2), human lung carcinoma (A549) and human breast carcinoma cell line (MCF-7) and pseudo-normal human embryonic liver cellline (L02) were used for antiproliferative activity, the cell lines were obtained from NCL, Pune. The growth medium used is the DMEM (Dulbecco's modified Eagle's growth medium) having 10% FBS (fetal bovine serum), 10 µg/ml of insulin (Sigma) and 1% penicillin/streptomycin. The used reagents and chemicals were purchased from Sigma or Invitrogen. 100 µl of each compound was added to cells with density of 1.2 – 1.8 × 10,000 cells/well containing 100 µl growth medium in a 96-well plate for 24 h previous to performing the MTT assay.
(§2) MTT assay: MTT (3-[4,5-dimethylthiazole-2-yl]-2,5-diphenyltetrazolium bromide) was used to determine the anti-proliferative activity. Cells were incubated in a moist environment for 24 hours at 37℃. The cells were then treated with various concentrations of the studied substances (0.01, 0.1, 1.0, 10, 50, 100 µM). The media was removed, and the cells were treated for 2 hours with a 5% MTT ([…]) solution/well, allowing the dye to metabolize to colored-insoluble formazan crystals. The remaining solution was discarded and acidified isopropanol was then added for around 30 minutes to dissolve the formazan crystals, which were encased in aluminum foil at room temperature. The absorbance of each well was measured at 450 nm using an Elisa reader. The cell viability was expressed as a percentage of control, and the GI50 was calculated using Graph Pad Prism program (Graph Pad software Inc, CA).

[2] = tested on: human breast carcinoma cell line (MCF-7); assay: MTT anti-proliferative assay, MCF-7; type: cell-based; conditions: MCF7, MCF-7, MTT, mean ± SD of three independent experiments, read-out: Growth inhibition, GI50
Method: as §1, §2

[3] = tested on: pseudo-normal human embryonic liver cell line (L02); assay: MTT assay, pseudo-normal L02 cells; type: cell-based; conditions: L02, 100 µM, mean ± SD of three independent experiments
Method: as §1, §2

[4] = tested on: human lung carcinoma cell line (A549); assay: MTT anti-proliferative assay, A549; type: cell-based; conditions: mean ± SD of three independent experiments, read-out: Growth inhibition, GI50
Method: as §1, §2

[5] = tested on: breast carcinoma cell line (MCF-7); assay: Annexin V-FITC/PI assay (flow cytometry); type: cell-based, human; conditions: 24 h
Method: The early stages of apoptosis were monitored by Annexin V-FITC (apoptotic cell marker) and PI (necrotic cell marker) double staining. The staining method was used according to the Annexin FITC/PI staining kit (Invitrogen™, Thermo Fisher Scientific Inc.). Annexin V- FITC/PI assay was performed to inspect the extent of programmed cell death (Fig. 3, apoptosis) by the compounds 4c, 4j and 8f on breast carcinoma cell line (MCF-7). The cells were treated with increasing concentrations (5–10 μM) for 24 h and analyzed by flow cytometry.
Annexin V-FITC/PI Assay: The early stages of apoptosis were monitored by Annexin V-FITC (apoptotic cell marker) and PI (necrotic cell marker) double staining. The staining method was used according to the Annexin FITC/PI staining kit (Invitrogen™, Thermo Fisher Scientific Inc.). Briefly, cells were washed in PBS twice and resuspended in 500 μl of PBS plus Annexin V-FITC and PI. For each sample at least 1×10^4 cells should be analysed using an FACS cytometer.

[6] = Homo sapiens, HepG2, HepG-2, MTT

| GI50 [1, 6] [µM] | GI50 [2] [µM] | GI50 ([4]; Homo sapiens, A549, A549, MTT) [µM] | GI50 ([1]; HepG-2, MTT) [µM] | GI50 ([4]; A549, MTT) [µM] | Structure (SMILES) | inhibition at 100 µM [3] [%] | Q2 late apoptotic cells ([5]; MCF-7, 5 μM) [%] | Q3 live cells ([5]; MCF-7, 5 μM) [%] | Q2 late apoptotic cells ([5]; MCF-7, 10 μM) [%] | Q3 live cells ([5]; MCF-7, 10 μM) [%] | Q1 necrotic cells ([5]; MCF-7, 5 μM) [%] | Q1 necrotic cells ([5]; MCF-7, 10 μM) [%] |
| --- | --- | --- | --- | --- | --- | --- | --- | --- | --- | --- | --- | --- |
| 22.7 ± 0.46 | 36.7 ± 0.41 | 17.5 ± 0.26 |  |  | O=C(CCl)Nc1nc(-c2ccc(F)cc2)cs1 [4g] | 16.3 ± 0.21 |  |  |  |  |  |  |
| 16 ± 0.43 | 33.74 ± 0.32 | 31.4 ± 0.36 |  |  | O=C(CCl)Nc1nc(-c2cccc(Br)c2)cs1 [4i] | 17.6 ± 0.38 |  |  |  |  |  |  |
| 26.8 ± 0.28 | 34.87 ± 0.31 | 36.2 ± 0.39 |  |  | Nc1nnc(SCC(=O)Nc2nc(-c3ccccc3)cs2)s1 [8a, 2-(5-amino-1,3,4-thiadiazol-2-ylthio)-N-(4-phenylthiazol-2-yl) acetamide] | 22.6 ± 0.42 |  |  |  |  |  |  |
| 2.38 ± 0.24 | 1.82 ± 0.21 | 2.61 ± 0.12 |  |  | COc1cccc(-c2csc(NC(=O)CCl)n2)c1 [4j] | 17.3 ± 0.23 | 34.84 | 42.81 | 40.33 | 32.80 |  |  |
| 18.9 ± 0.29 | 29.4 ± 0.32 | 19.2 ± 0.32 |  |  | O=C(CCl)Nc1nc(-c2ccc([N+](=O)[O-])cc2)cs1 [4f] | 28.16 ± 0.27 |  |  |  |  |  |  |
| 18.3 ± 0.34 | 28 ± 0.34 | 29.8 ± 0.37 |  |  | Cc1ccc(-c2csc(NC(=O)CSc3nnc(N)s3)n2)cc1 [8e, 2-(5-amino-1,3,4-thiadiazol-2-ylthio)-N-(4-p-tolylthiazol-2-yl) acetamide] | 23.8 ± 0.42 |  |  |  |  |  |  |
| 3.92 |  | 3.86 | 3.62 ± 0.14 | 2.97 ± 0.19 | O=C(CCl)Nc1nc(-c2ccc(Br)cc2)cs1 [4b] | 17.8 ± 0.51 |  |  |  |  |  |  |
| 4.12 ± 0.18 | 20.7 ± 0.36 | 7.86 ± 0.24 |  |  | Nc1nnc(SCC(=O)Nc2nc(-c3ccc(Cl)cc3)cs2)s1 [8c, 2-(5-amino-1,3,4-thiadiazol-2-ylthio)-N-(4-(4-chlorophenyl)thiazol-2-yl) acetamide] | 18.2 ± 0.22 |  |  |  |  |  |  |
| 7.28 ± 0.16 | 31.8 ± 0.46 | 13.7 ± 0.34 |  |  | Cc1ccc(-c2csc(NC(=O)CCl)n2)cc1 [4e] | 15.9 ± 0.24 |  |  |  |  |  |  |
| 25.81 ± 0.23 | 38.15 ± 0.27 | 28.6 ± 0.47 |  |  | O=C(CCl)Nc1nc(-c2cccc([N+](=O)[O-])c2)cs1 [4h] | 18.4 ± 0.34 |  |  |  |  |  |  |
| 3.46 ± 0.13 | 3.71 ± 0.26 | 4.64 ± 0.23 |  |  | Nc1nnc(SCC(=O)Nc2nc(-c3ccc([N+](=O)[O-])cc3)cs2)s1 [8f, 2-(5-amino-1,3,4-thiadiazol-2-ylthio)-N-(4-(4-nitrophenyl)thiazol-2-yl) acetamide] | 20.6 ± 0.37 | 14.62 | 59.08 | 37.15 | 46.14 | 16.99 | 12.44 |
| 5.86 ± 0.24 | 4.07 ± 0.19 | 18.4 ± 0.46 |  |  | Nc1nnc(SCC(=O)Nc2nc(-c3ccc(Br)cc3)cs2)s1 [8b, 2-(5-amino-1,3,4-thiadiazol-2-ylthio)-N-(4-(4-bromophenyl)thiazol-2-yl) acetamide] | 15.8 ± 0.28 |  |  |  |  |  |  |
| 3.92 ± 0.17 | 2.63 ± 0.14 | 3.86 ± 0.22 |  |  | O=C(CCl)Nc1nc(-c2ccc(Cl)cc2)cs1 [4c] | 18.4 ± 0.48 |  | 62.43 |  | 42.19 |  |  |
| 8.37 ± 0.23 | 26.5 ± 0.32 | 15.4 ± 0.23 |  |  | COc1ccc(-c2csc(NC(=O)CCl)n2)cc1 [4d] | 12.8 ± 0.22 |  |  |  |  |  |  |
| 2.53 ± 0.1 | 2.98 ± 0.15 | 2.85 ± 0.18 |  |  | COc1ccc(-c2csc(NC(=O)CSc3nnc(N)s3)n2)cc1 [8d, 2-(5-amino-1,3,4-thiadiazol-2-ylthio)-N-(4-(4-methoxyphenyl)thiazol-2-yl) acetamide] | 21.8 ± 0.38 |  |  |  |  |  |  |
| 29.8 ± 0.34 | 37.26 ± 0.37 | 32.9 ± 0.46 |  |  | CCOC(=O)c1sc(NC(=O)CCl)nc1C [4l] | 26 ± 0.47 |  |  |  |  |  |  |
| 14.3 ± 0.28 | 26.4 ± 0.28 | 25.3 ± 0.39 |  |  | O=C(CCl)Nc1nc(-c2cc3ccccc3oc2=O)cs1 [4k] | 23 ± 0.35 |  |  |  |  |  |  |
| 3.87 ± 0.16 | 4.15 ± 0.18 | 3.26 ± 0.24 |  |  | COc1cccc2c1C(=O)c1c(O)c3c(c(O)c1C2=O)C[C@@](O)(C(=O)CO)C[C@@H]3O[C@H]1C[C@H](N)[C@H](O)[C@H](C)O1 [doxorubicin, reference compound] | 82.2 ± 1.26 |  |  |  |  |  |  |
| 12.9 ± 0.25 | 23.8 ± 0.24 | 18.7 ± 0.41 |  |  | O=C(CCl)Nc1nc(-c2ccccc2)cs1 [4a] | 21.6 ± 0.43 |  |  |  |  |  |  |
